The target of one experiment is T1, BRAF G466V (Homo sapiens, UniProt P15056, G466V).
T1 construct: expressed in transfected cells
Description: Cellular assay of target protein degradation, T-Rex 293 cells stably transfected with HA-BRAF G466V (HA immunofluorescence, high content imaging). The experiment is classed as cell-based. The method, boiled down: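 Cells expressing doxycycline-induced (0.75 ng/mL) HA-BRAF G466V were treated with compound at 30 nM to 3 pM in 0.1% DMSO for 24 hours at 37° C. After fixation and permeabilization, HA was immunostained and quantified by high content imaging to derive DC50 and Dmax.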

A further experiment deals with T2, BRAF V600E (Homo sapiens, UniProt P15056, V600E).
T2 construct: expressed in transfected cells
Nature of the experiment: Cellular assay of target protein degradation, T-Rex 293 cells stably transfected with HA-BRAF_V600E (HA immunofluorescence, high content imaging). Format: cell-based. In short, it runs like this:
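Doxycycline-induced (1 ng/mL) cells were treated 24 h at 37 °C with compound at 1 μM to 0.1 nM final in 0.1% DMSO. After fixation, permeabilization and blocking, anti-HA staining was imaged by high-content reading; DC50 and Dmax (% of control) were derived.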

Setting [1] is: half maximal degradation, T-Rex 293 HA-BRAF G466V; read-out: BRaf G466V DC50.
[2] abbreviates: maximum degradation observed, T-Rex 293 HA-BRAF G466V.
Setting [3] is: half maximal degradation, T-Rex 293 HA-BRAF V600E; read-out: BRaf V600E DC50.
Where [4] appears, read: maximum degradation observed, T-Rex 293 HA-BRAF V600E.

Where two headings read alike, the source gives them in different places.

T1 sequence (P15056 whole entry G466V): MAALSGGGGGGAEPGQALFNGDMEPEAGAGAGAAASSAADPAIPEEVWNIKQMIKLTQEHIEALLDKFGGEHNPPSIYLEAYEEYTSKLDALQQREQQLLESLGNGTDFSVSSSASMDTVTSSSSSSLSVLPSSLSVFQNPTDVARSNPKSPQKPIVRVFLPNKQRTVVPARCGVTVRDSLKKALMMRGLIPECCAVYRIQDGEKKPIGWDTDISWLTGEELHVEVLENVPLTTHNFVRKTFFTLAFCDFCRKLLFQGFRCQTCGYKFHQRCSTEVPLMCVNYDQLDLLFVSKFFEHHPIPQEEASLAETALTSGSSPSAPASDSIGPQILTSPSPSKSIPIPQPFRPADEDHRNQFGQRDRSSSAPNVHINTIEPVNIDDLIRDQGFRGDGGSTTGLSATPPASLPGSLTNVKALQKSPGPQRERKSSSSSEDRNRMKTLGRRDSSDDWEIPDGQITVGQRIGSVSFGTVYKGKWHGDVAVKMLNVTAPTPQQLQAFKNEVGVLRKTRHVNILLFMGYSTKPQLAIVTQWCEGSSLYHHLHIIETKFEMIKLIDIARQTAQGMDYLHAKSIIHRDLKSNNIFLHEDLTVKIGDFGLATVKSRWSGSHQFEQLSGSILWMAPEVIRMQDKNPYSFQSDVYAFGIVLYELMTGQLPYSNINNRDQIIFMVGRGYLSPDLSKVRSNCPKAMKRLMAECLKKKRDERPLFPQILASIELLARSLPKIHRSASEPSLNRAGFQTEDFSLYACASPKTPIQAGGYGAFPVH
T2 sequence (P15056 whole entry V600E): as the sequence (P15056 whole entry G466V) above, with V466G, V600E counted along it

Take `O=C1CCC(N2Cc3cc(N4CCC(CN5CCC6(CCN(c7ccc(-c8cnc9[nH]cc(C(=O)c%10c(F)ccc(NS(=O)(=O)N%11CC[C@@H](F)C%11)c%10F)c9c8)cn7)CC6)C5)CC4)ccc3C2=O)C(=O)N1` (stereo partly drawn) [Compound 95, (3R)-N-[3-(5-{6-[2-({1-[2-(2,6-dioxopiperidin-3-yl)-1-oxo-2,3-dihydro-1H-isoindol-5-yl]piperidin-4-yl}methyl)-2,8-diazaspiro[4.5]decan-8-yl]pyridin-3-yl}-1H-pyrrolo[2,3-b]pyridine-3-carbonyl)-2,4-difluorophenyl]-3-fluoropyrrolidine-1-sulfonamide]: the values for the DC50 on BRAF G466V (setting [1]) and on BRAF V600E (setting [3]) were < 1 nM and > 500 nM, respectively. Besides, on BRAF G466V (setting [2]), the Dmax is 35 to 70%.

Consider `CC(C)(C1CCN(c2ccc(-c3cnc4[nH]cc(C(=O)c5c(F)ccc(NS(=O)(=O)N6CC[C@@H](F)C6)c5F)c4c3)cc2)CC1)N1CCN(c2ccc3c(c2)CN(C2CCC(=O)NC2=O)C3=O)CC1` (stereo partly drawn) [Compound 97, (3R)-N-[3-(5-{4-[4-(2-{4-[2-(2,6-dioxopiperidin-3-yl)-1-oxo-2,3-dihydro-1H-isoindol-5-yl]piperazin-1-yl}propan-2-yl)piperidin-1-yl]phenyl}-1H-pyrrolo[2,3-b]pyridine-3-carbonyl)-2,4-difluorophenyl]-3-fluoropyrrolidine-1-sulfonamide], for which the values for the maximal degradation (Dmax) on BRAF G466V (setting [2]) and at BRAF V600E (setting [4]) were > 70% and 35 to 70%, respectively. The DC50 on BRAF G466V (read-out: BRaf G466V DC50; half maximal degradation, T-Rex 293 HA-BRAF G466V) lay in the range of 1 to 10 nM; at BRAF V600E (read-out: BRaf V600E DC50; half maximal degradation, T-Rex 293 HA-BRAF V600E), 5 to 50 nM.

Consider `O=C1CCC(N2Cc3cc(N4CCN(C[C@@H](O)Cc5ccc(-c6cnc7[nH]cc(C(=O)c8c(F)ccc(NS(=O)(=O)N9CC[C@@H](F)C9)c8F)c7c6)cc5)CC4)ccc3C2=O)C(=O)N1` (stereo partly drawn) [Compound 98, (3R)-N-[3-(5-{4-[(2S)-3-{4-[2-(2,6-dioxopiperidin-3-yl)-1-oxo-2,3-dihydro-1H-isoindol-5-yl]piperazin-1-yl}-2-hydroxypropyl]phenyl}-1H-pyrrolo[2,3-b]pyridine-3-carbonyl)-2,4-difluorophenyl]-3-fluoropyrrolidine-1-sulfonamide], for which the DC50 at BRAF G466V (setting [1]) was in the range of 1 to 10 nM; on BRAF V600E (setting [3]), 5 to 50 nM. Also, the Dmax on BRAF G466V (setting [2]) was > 70%; on BRAF V600E (setting [4]) it was 35 to 70%.

Regarding `O=C1CC[C@H](N2Cc3cc(C4CN(CC5CC6(C5)CN(c5ccc(-c7cnc8[nH]cc(C(=O)c9c(F)ccc(NS(=O)(=O)N%10CC[C@@H](F)C%10)c9F)c8c7)cc5)C6)C4)ccc3C2=O)C(=O)N1` [Compound 99, (3R)-N-{3-[5-(4-{6-[(3-{2-[(3S)-2,6-dioxopiperidin-3-yl]-1-oxo-2,3-dihydro-1H-isoindol-5-yl}azetidin-1-yl)methyl]-2-azaspiro[3.3]heptan-2-yl}phenyl)-1H-pyrrolo[2,3-b]pyridine-3-carbonyl]-2,4-difluorophenyl}-3-fluoropyrrolidine-1-sulfonamide], the figures for the DC50 on BRAF G466V (setting [1]) and at BRAF V600E (setting [3]) were 1 to 10 nM and 5 to 50 nM, respectively. Besides, the Dmax at BRAF G466V (setting [2]) is > 70%; on BRAF V600E (setting [4]), 35 to 70%.

Regarding `O=C1CC[C@@H](N2Cc3cc(C4CN(CC5CC6(C5)CN(c5ccc(-c7cnc8[nH]cc(C(=O)c9c(F)ccc(NS(=O)(=O)N%10CC[C@@H](F)C%10)c9F)c8c7)cc5)C6)C4)ccc3C2=O)C(=O)N1` [Compound 100, (3R)-N-{3-[5-(4-{6-[(3-{2-[(3R)-2,6-dioxopiperidin-3-yl]-1-oxo-2,3-dihydro-1H-isoindol-5-yl}azetidin-1-yl)methyl]-2-azaspiro[3.3]heptan-2-yl}phenyl)-1H-pyrrolo[2,3-b]pyridine-3-carbonyl]-2,4-difluorophenyl}-3-fluoropyrrolidine-1-sulfonamide], the results for the DC50 on BRAF G466V (setting [1]) and at BRAF V600E (setting [3]) were 1 to 10 nM and 5 to 50 nM, respectively. Besides, the Dmax at BRAF G466V (setting [2]) was > 70%; on BRAF V600E (setting [4]) it was 35 to 70%.

Consider `O=C1CCC(N2Cc3cc(N4CCN(CC5CN(c6ccc(-c7cnc8[nH]cc(C(=O)c9c(F)ccc(NS(=O)(=O)N%10CC[C@@H](F)C%10)c9F)c8c7)cn6)C5)CC4)ccc3C2=O)C(=O)N1` (stereo partly drawn) [Compound 101, (3R)-N-[3-(5-{6-[3-({4-[2-(2,6-dioxopiperidin-3-yl)-1-oxo-2,3-dihydro-1H-isoindol-5-yl]piperazin-1-yl}methyl)azetidin-1-yl]pyridin-3-yl}-1H-pyrrolo[2,3-b]pyridine-3-carbonyl)-2,4-difluorophenyl]-3-fluoropyrrolidine-1-sulfonamide], for which the DC50 on BRAF G466V (setting [1]) lay within 1 to 10 nM; at BRAF V600E (setting [3]), 5 to 50 nM. Besides, the Dmax at BRAF G466V (setting [2]) was > 70%; on BRAF V600E (setting [4]), 35 to 70%.

Regarding `COc1cc(CN2CCN(c3ccc(-c4cnc5[nH]cc(C(=O)c6c(F)ccc(NS(=O)(=O)N7CC[C@@H](F)C7)c6F)c5c4)cc3)CC2)cc2c1C(=O)N(C1CCC(=O)NC1=O)C2` (stereo partly drawn) [Compound 102, (3R)-N-(3-{5-[4-(4-{[2-(2,6-dioxopiperidin-3-yl)-7-methoxy-1-oxo-2,3-dihydro-1H-isoindol-5-yl]methyl}piperazin-1-yl)phenyl]-1H-pyrrolo[2,3-b]pyridine-3-carbonyl}-2,4-difluorophenyl)-3-fluoropyrrolidine-1-sulfonamide], the DC50 at BRAF G466V (setting [1]) is 1 to 10 nM; at BRAF V600E (setting [3]), > 500 nM. Moreover, the greatest degradation seen (Dmax) on BRAF G466V (setting [2]) was 35 to 70%; on BRAF V600E (setting [4]) it was > 70%.

As to `O=C1CCC(N2Cc3cc(C4CCN(CC5CC6(C5)CN(c5ccc(-c7cnc8[nH]cc(C(=O)c9c(F)ccc(NS(=O)(=O)N%10CC[C@@H](F)C%10)c9F)c8c7)cn5)C6)CC4)ccc3C2=O)C(=O)N1` (stereo partly drawn) [Compound 103, (3R)-N-[3-(5-{6-[6-({4-[2-(2,6-dioxopiperidin-3-yl)-1-oxo-2,3-dihydro-1H-isoindol-5-yl]piperidin-1-yl}methyl)-2-azaspiro [3.3]heptan-2-yl]pyridin-3-yl}-1H-pyrrolo[2,3-b]pyridine-3-carbonyl)-2,4-difluorophenyl]-3-fluoropyrrolidine-1-sulfonamide], the DC50 was 1 to 10 nM on BRAF G466V (setting [1]) and 5 to 50 nM on BRAF V600E (setting [3]). The values for the Dmax at BRAF G466V (setting [2]) and at BRAF V600E (setting [4]) were > 70% and 35 to 70%, respectively.

For the compound `O=C1CCC(N2Cc3cc(N4CCC(CN5CCC6(CCN(c7ccc(-c8cnc9[nH]cc(C(=O)c%10c(F)ccc(NS(=O)(=O)N%11CC[C@@H](F)C%11)c%10F)c9c8)cc7F)CC6)C5)CC4)ccc3C2=O)C(=O)N1` (stereo partly drawn) [Compound 104, (3R)-N-[3-(5-{4-[2-({1-[2-(2,6-dioxopiperidin-3-yl)-1-oxo-2,3-dihydro-1H-isoindol-5-yl]piperidin-4-yl}methyl)-2,8-diazaspiro [4.5]decan-8-yl]-3-fluorophenyl}-1H-pyrrolo [2,3-b]pyridine-3-carbonyl)-2,4-difluorophenyl]-3-fluoropyrrolidine-1-sulfonamide], the DC50 is 1 to 10 nM at BRAF G466V (setting [1]) and < 5 nM on BRAF V600E (setting [3]). In addition, the Dmax on BRAF G466V (setting [2]) is > 70%; on BRAF V600E (setting [4]), < 35%.

On to `O=C1CC[C@H](N2Cc3cc([C@H](O)CCN4CC5(C4)CN(c4ccc(-c6cnc7[nH]cc(C(=O)c8c(F)ccc(NS(=O)(=O)N9CC[C@@H](F)C9)c8F)c7c6)cc4)C5)ccc3C2=O)C(=O)N1` [Compound 105, (3R)—N-[3-[5-[4-[6-[(3R)-3-[2-[(3S)-2,6-dioxo-3-piperidyl]-1-oxo-isoindolin-5-yl]-3-hydroxy-propyl]-2,6-diazaspiro[3.3]heptan-2-yl]phenyl]-1H-pyrrolo[2,3-b]pyridine-3-carbonyl]-2,4-difluoro-phenyl]-3-fluoro-pyrrolidine-1-sulfonamide], for which the DC50 on BRAF G466V (setting [1]) was 1 to 10 nM; on BRAF V600E (setting [3]), 5 to 50 nM. Besides, the Dmax on BRAF G466V (setting [2]) and on BRAF V600E (setting [4]) was 35 to 70% throughout.

With `O=C1CC[C@H](N2Cc3cc([C@@H](O)CCN4CC5(C4)CN(c4ccc(-c6cnc7[nH]cc(C(=O)c8c(F)ccc(NS(=O)(=O)N9CC[C@@H](F)C9)c8F)c7c6)cc4)C5)ccc3C2=O)C(=O)N1` [Compound 106, (3R)-N-{3-[5-(4-{6-[(3S)-3-{2-[(3S)-2,6-dioxopiperidin-3-yl]-1-oxo-2,3-dihydro-1H-isoindol-5-yl}-3-hydroxypropyl]-2,6-diazaspiro[3.3]heptan-2-yl}phenyl)-1H-pyrrolo[2,3-b]pyridine-3-carbonyl]-2,4-difluorophenyl}-3-fluoropyrrolidine-1-sulfonamide], the figures for the DC50 at BRAF G466V (setting [1]) and at BRAF V600E (setting [3]) were 1 to 10 nM and 5 to 50 nM, respectively. Besides, the Dmax on BRAF G466V (setting [2]) is > 70%; on BRAF V600E (setting [4]), 35 to 70%.

Consider `O=C1CC[C@H](N2Cc3cc(C[C@@H](O)CN4CCC(c5ccc(-c6cnc7[nH]cc(C(=O)c8c(F)ccc(NS(=O)(=O)N9CC[C@@H](F)C9)c8F)c7c6)cc5)CC4)ccc3C2=O)C(=O)N1` [Compound 107], for which the DC50 on BRAF G466V (setting [1]) lay within 1 to 10 nM; at BRAF V600E (setting [3]) it was 5 to 50 nM. The Dmax at BRAF G466V (setting [2]) and on BRAF V600E (setting [4]) was 35 to 70% each time.

Consider `O=C1CC[C@@H](N2Cc3cc(C[C@@H](O)CN4CCC(c5ccc(-c6cnc7[nH]cc(C(=O)c8c(F)ccc(NS(=O)(=O)N9CC[C@@H](F)C9)c8F)c7c6)cc5)CC4)ccc3C2=O)C(=O)N1` [Compound 108, (3R)-N-{3-[5-(4-{1-[(2R)-3-{2-[(3R)-2,6-dioxopiperidin-3-yl]-1-oxo-2,3-dihydro-1H-isoindol-5-yl}-2-hydroxypropyl]piperidin-4-yl}phenyl)-1H-pyrrolo[2,3-b]pyridine-3-carbonyl]-2,4-difluorophenyl}-3-fluoropyrrolidine-1-sulfonamide], for which the values for the DC50 on BRAF G466V (setting [1]) and on BRAF V600E (setting [3]) were 1 to 10 nM and 5 to 50 nM, respectively. Moreover, the Dmax at BRAF G466V (setting [2]) is > 70%; at BRAF V600E (setting [4]), 35 to 70%.

What is called DC50 is the concentration giving 50% degradation. The term Dmax denotes the greatest extent of degradation seen. Read a low Dmax as shallow degradation.

Values taken from patent publication US12180193B2, “Accelerating fibrosarcoma protein degrading compounds and associated methods of use” (Arvinas Operations, Inc., priority 2020, dated 2024).
